A short description of this series: in vivo. The arrangement: species or system dogs. Conditions: dog; for AUC0-infinity / AUC(0-inf): po; for AUC(0-inf): AUC0-infinity. How it is done:
The control food without ALA is fed throughout the study period. The analytical results of the foods fed in this study are in Table 1. A three period Latin square design was used to create a 3×3 factorial arrangement of treatments with dogs assigned to a group following a planned treatment assignment. […] Pharmacokinetic parameters are calculated using a non-compartmental model and analyzed using non-parametric tests of WinNonlin 4.1 in SAS v9.]. There was a significant effect of dose for all delivery methods (P<0.05). […]

With `O=C(O)CCCCC1CCSS1` (racemic) [lipoic acid, dl-alpha-lipoic acid], the “elimination half life, co-manufactured food compared with capsule” value was “greater”; the “maximum serum concentrations, effect of delivery method” value is “lower maximum serum concentrations”; the “total area under the curve, co-manufactured food compared with capsule” value is recorded as “greater”. Moreover, under “12.5 mg/kg”, the AUC0-infinity worked out at 92215 ng·min/mL and the AUC(0-inf) (as a rule, the area under the concentration-time curve extrapolated to infinity) is 1240 ng·h/mL. In addition, under “25 mg/kg”, the AUC0-infinity amounted to 227304 ng·min/mL and the AUC(0-inf) is 3580 ng·h/mL.

Values taken from patent US20170290801A1 (Hill's Pet Nutrition, Inc., priority 2009, published 2017).
